From patent US11667629B2, “Isoxazole derivative, preparation method therefor, and use thereof” (SICHUAN KELUN-BIOTECH BIOPHARMACEUTICAL CO., LTD., priority 2017, dated 2023) come the findings set out here.

The nature of data set [1]: Liver microsomal stability test, rat. Type of data set: in vitro ADME. Conditions: liver microsomes; rat liver microsome, 1 μM compound, 0.5 mg/mL, NADPH. On the procedure: (§1) The test compound (50 μL) was mixed with the liver microsome (100 μL) of each species, after pre-incubation at 37° C. for 5 minutes, NADPH (50 μL) was added, and the incubation was performed for 0, 30, and 60 minutes. The incubation concentrations of the test compound, NADPH, and liver microsomal enzyme were 1 μM, 1 mM, and 0.5 mg/mL, respectively. Ice-cold acetonitrile (200 μL) was added to stop the reaction, and an appropriate volume of the internal standard was then added. After the vortex and centrifugation process, the supernatant was obtained and detected.
(§2) LC-MS/MS, wherein the mass spectrometer was API 5500, and the liquid chromatograph was Shimadzu LC-30AD system. The chromatographic column was Hypersil GOLD C18, 1.9 μm particle size, 50×2.1 mm; mobile phase A was water+0.1% formic acid, phase B was acetonitrile; flow rate was 0.55 mL/min, and column temperature was 40° C. The ion source was an ESI source positive ion mode, and the scanning mode is multiple reaction monitoring (MRM).
(§3) By determining the concentrations of the samples at different incubation time, the rate constant was obtained by plotting “Ln (amount of the remained drug %)” versus “incubation time”. The half-life and liver clearance rate of the drug were then calculated, and were used to evaluate the metabolic stability of the drug in liver microsome.

The target of data set [2] is T1, FXR (Homo sapiens, UniProt Q96RI1).
T1 construct: expressed in transfected cells; host or cells: HEK293
T1 sequence (Q96RI1 1-486): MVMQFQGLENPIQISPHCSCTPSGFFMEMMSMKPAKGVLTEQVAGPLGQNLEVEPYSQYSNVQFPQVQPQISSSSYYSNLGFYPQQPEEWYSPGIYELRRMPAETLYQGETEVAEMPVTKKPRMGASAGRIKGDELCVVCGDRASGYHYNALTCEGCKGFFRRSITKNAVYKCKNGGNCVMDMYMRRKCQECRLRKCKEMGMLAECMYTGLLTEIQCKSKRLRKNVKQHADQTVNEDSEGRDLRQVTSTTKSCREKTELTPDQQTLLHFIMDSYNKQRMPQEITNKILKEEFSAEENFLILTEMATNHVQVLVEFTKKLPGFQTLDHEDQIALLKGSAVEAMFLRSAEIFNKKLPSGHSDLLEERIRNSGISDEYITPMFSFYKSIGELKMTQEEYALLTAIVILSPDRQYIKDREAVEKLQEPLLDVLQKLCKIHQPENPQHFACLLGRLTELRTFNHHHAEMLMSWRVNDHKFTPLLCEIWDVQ
Nature of the data set: Luciferase reporter gene assay (HEK293 cotransfected with FXR and human BSEP luciferase reporter). Type of data set: cell-based. On the procedure: Human embryonic kidney cells HEK293 were cultured in a DMEM medium containing 10% FBS. Plasmids were cotransfected to allow the cells to have over expression of FXR and human BSEP luciferase reporter genes. The transfected cells were digested, resuspended, counted, and plated in a multi-well plate. 10 μL of the test compound at various concentrations was added to the multi-well plate to result in final concentrations of 64 μM, 16 μM, 4 μM, 1 μM, 0.25 μM, 0.0625 μM, 0.0156 μM, 0.0039 μM, 0.000975 μM, 0.000244 μM, 0 μM, and the final concentration of DMSO was 0.5%. After the test compound was incubated with the cells for 18 hours, the Brigh-Glo™ detection reagent was added, and the chemical light unit value (RLU) was detected by a multifunctional automatic microplate reader. Taking the signal value of the blank well (without the test compound) as 100%, the relative signal percentage (%) at each concentration of the test compound was calculated. The SigmaPlot 10 software was employed to fit the EC50 and the maximum activation effect Emax (relative signal percentage) of the test compounds using a four-parameter model.

In data set [3] the target is T2, FXR (Homo sapiens, UniProt Q96RI1).
T2 construct: purchased Invitrogen
Nature of the data set: Bile acid receptor FXR coactivator binding assay (LanthaScreen TR-FRET). Type of data set: biochemical. On the procedure:
The Invitrogen⋅LanthaScreen™ TR-FRET Farnesoid X Receptor Coactivator Assay kit was employed to determine the activation effect of the compounds on FXR.
After the receptor was incubated with the test compound at various concentrations at room temperature, the fluorescent-labeled coactivator short peptides and terbium-labeled antibody were added, and the FRET signal was detected after the reaction was complete at room temperature. The group without the receptor protein was employed as a blank, the activation effect (EC50) and maximum activation effect signal value (Emax) of the test compounds on FXR were calculated according to the four-parameter fitting equation: y=E min+(E max−E min)/(1+(x/EC50)^(−Hillslope))

Data set [4] can be described thus: Liver microsomal stability test, mouse. Type of data set: in vitro ADME. Conditions: liver microsomes; mouse liver microsome, 1 μM compound, 0.5 mg/mL, NADPH. On the procedure: as §1, §2, §3
Data set [5] is described as follows: Liver microsomal stability test, dog. The following applies: liver microsomes; dog liver microsome, 1 μM compound, 0.5 mg/mL, NADPH. Type of data set: in vitro ADME. As for the experimental part: as §1, §2, §3
Data set [6] can be described thus: Liver microsomal stability test, human. Type of data set: in vitro ADME. As for the experimental part:
as §1, §2, §3

`O=C(O)c1ccc(-c2csc(N3[C@@H]4CC[C@H]3C[C@@H](OCc3c(-c5ccccc5OC(F)(F)F)noc3C3CC3)C4)n2)cc1C(F)(F)F` [Compound C46, 4-(2-((1R,3r,5S)-3-((5-cyclopropyl-3-(2-(trifluoromethoxy)phenyl)isoxazol-4-yl)methoxy)-8-azabicyclo[3.2.1]octan-8-yl)thiazol-4-yl)-2-(trifluoromethyl)benzoic acid]: the intrinsic metabolic clearance (CLint scaled) at 1 μM in data set [1] is 0.96 mL/min/kg; in data set [4], 15.3 mL/min/kg; in data set [5], 8.03 mL/min/kg. Besides, the half-life at 1 μM stood at 16.1 h in data set [1], 2.5 h in data set [4] and 4.32 h in data set [5]. The EC50 in data set [2] (HEK293, 18 hours incubation) came out at 14 ± 5 nM; in data set [3] (TR-FRET coactivator assay, four-parameter fit, read-out: EC50 of the compounds on FXR), 2 ± 1 nM. Further, the Emax stood at 301% in data set [2] (HEK293, maximum activation effect, relative signal percentage, blank well = 100%) and 196% in data set [3] (read-out: Relative activation effect). Besides, the “clearance rate in human liver microsome” value in data set [6] is 14.9 mL/min/kg.
